Data as given in US20060153936A1, “Flavonoid solubilizing agent and method of solubilizing flavonoid” (priority 2003, published 2006).
Where two headings read alike, the source gives them in different places. One block for each molecule: values may come before it.

What was measured:
[1] = Isoflavone dissolution amount by HPLC with malonyl daidzin (Example 6); type: physicochemical; settings: for dissolution amount of malonyl daidzin itself: share of malonyl daidzin in the isoflavone amount of the supernatant, 10° C.
Method: (§1) Ultrapure water 1 mL was added to a commercially available soybean isoflavone (trade name “Honen Isoflavone-80”, manufactured by Honen Corporation) 12.5 mg (10 mg of isoflavone glycoside) and a commercially available malonyl isoflavone glycoside, malonyl daidzin (purity: 90% or more, manufactured by Wako Pure Chemicals, Co., Ltd.) 1 mg, and the mixture was stirred at 25° C. for one hour. Then, after it was equilibrated at 10° C. for 48 hours, the supernatant was collected by centrifugation and an isoflavone dissolution amount was measured by HPLC. Further, the supernatant was placed in a test tube, it was stored as such at 10° C. for one month to observe the formation of a precipitate by visual examination.

[2] = type: physicochemical
Method: as §1

[3] = Storage stability of naringin supernatant at 10° C., visual examination (Example 4); type: physicochemical; settings: naringin supernatant without additive, 95° C. 15 minutes, stored 10° C. one month
Method: (§2) Further, the supernatant was placed in a test tube, and after it was pasteurized by heating at 95° C. for 15 minutes, it was stored at 10° C. for one month to observe the formation of a precipitate by visual examination.

[4] = Naringin dissolution amount with solubilizing agent (Example 4); type: physicochemical; settings: without additive; naringin 100 mg in ultrapure water 10 mL; 80° C. one hour, equilibrated 10° C. 48 hours
Method: Ultrapure water 10 mL was added to commercially available naringin (flavanones, purity: 95% or more, manufactured by Sigma Inc.) 100 mg and the same solubilizing agent as that used in Example 1, and the mixture was stirred at 80° C. for one hour. Then, after it was equilibrated at 10° C. for 48 hours, the supernatant was collected by centrifugation. The OD254 in the supernatant was measured and a naringin dissolution amount was calculated by the following equation 4. naringin dissolution amount (mg/100 mL)=(OD254 in sample supernatant−OD254 in control supernatant)/naringin specific absorbance×1000

[5] = Storage stability of hesperidin supernatant at 10° C., visual examination (Example 3); type: physicochemical; settings: hesperidin supernatant without additive, 95° C. 15 minutes, stored 10° C. one month
Method: as §2

[6] = Hesperidin dissolution amount with solubilizing agent (Example 3); type: physicochemical; settings: without additive; hesperidin 100 mg in ultrapure water 10 mL; 80° C. one hour, equilibrated 10° C. 48 hours
Method: Then, after it was equilibrated at 10° C. for 48 hours, the supernatant was collected by centrifugation. The OD254 of the supernatant was measured and a hesperidin dissolution amount was calculated by the following equation 3. hesperidin dissolution amount (mg/100 mL)=(OD254 in sample supernatant−OD254 in control supernatant)/hesperidin specific absorbance×1000

[7] = Baicalin dissolution amount with solubilizing agent (Example 1); type: physicochemical; settings: without additive; baicalin 100 mg in ultrapure water 10 mL; 80° C. one hour, equilibrated 10° C. 48 hours
Method: Then, after the mixture was equilibrated at 10° C. for 48 hours, the supernatant was collected by centrifugation. The OD254 of the supernatant was measured and the dissolution amount of baicalin was calculated by the following equation 1. baicalin dissolution amount (mg/100 mL)=(OD254 in sample supernatant−OD254 in control supernatant)/baicalin specific absorbance×1000

[8] = Storage stability of baicalin supernatant at 10° C., visual examination (Example 1); type: physicochemical; settings: baicalin supernatant without additive, 95° C. 15 minutes, stored 10° C. one month
Method: Further, the supernatant was placed in a test tube and, after it was pasteurized by heating at 95° C. for 15 minutes, it was stored at 10° C. for one month to observe the formation of a precipitate by visual examination.

[9] = Storage stability of rutin supernatant at 10° C., visual examination (Example 2); type: physicochemical; settings: rutin supernatant without additive, 95° C. 15 minutes, stored 10° C. one month
Method: Further, the supernatant was placed in a test tube, after it was pasteurized by heating at 95° C. for 15 minutes, it was stored at 10° C. for one month to observe the formation of a precipitate by visual examination.

Compound: O=C(O)CC(=O)OC[C@H]1O[C@@H](Oc2ccc3c(=O)c(-c4ccc(O)cc4)coc3c2)[C@H](O)[C@@H](O)[C@@H]1O [Malonyl daidzin, malonyl daidzin]
Isoflavone amount ([1]; Honen Isoflavone-80 12.5 mg + malonyl daidzin 1 mg in ultrapure water 1 mL, 25° C. one hour, equilibrated 10° C. 48 hours, HPLC, total including malonyl daidzin): 106.3 mg/100 mL
solubilizing magnifying power of the isoflavone glycoside ([1]; in the co-presence of malonyl daidzin, malonyl daidzin's own amount deducted): 2.9 fold
dissolution amount of malonyl daidzin itself ([1]; HPLC): (including 56.9 of mg/100 mL
dissolution amount of malonyl daidzin itself ([1]; HPLC, listed as malonyl daidzin): 56.9 mg/100 mL
Storage stability (10° C.) [2]: No precipitate

Compound: COc1ccc([C@@H]2CC(=O)c3c(O)cc(O[C@@H]4O[C@H](CO[C@@H]5O[C@@H](C)[C@H](O)[C@@H](O)[C@H]5O)[C@@H](O)[C@H](O)[C@H]4O)cc3O2)cc1O [Hesperidin, hesperidin]
Storage stability (10° C.) [5]: precipitate
Hesperidin dissolution amount [6]: 8.6 mg/100 mL

Compound: O=C(O)[C@H]1O[C@@H](Oc2cc3oc(-c4ccccc4)cc(=O)c3c(O)c2O)[C@H](O)[C@@H](O)[C@@H]1O [Baicalin, baicalin]
Baicalin dissolution amount [7]: 12.4 mg/100 mL
Storage stability (10° C.) [8]: precipitate

The remaining lines, values ahead:

Storage stability (10° C.) [3]: precipitate
Naringin dissolution amount [4]: 68.0 mg/100 mL
Compound: C[C@@H]1O[C@@H](O[C@H]2[C@H](Oc3cc(O)c4c(c3)O[C@H](c3ccc(O)cc3)CC4=O)O[C@H](CO)[C@@H](O)[C@@H]2O)[C@H](O)[C@H](O)[C@H]1O [Naringin, naringin]

Storage stability (10° C.) [9]: precipitate
Compound: C[C@@H]1O[C@@H](OC[C@H]2O[C@@H](Oc3c(-c4ccc(O)c(O)c4)oc4cc(O)cc(O)c4c3=O)[C@H](O)[C@@H](O)[C@@H]2O)[C@H](O)[C@H](O)[C@H]1O [Rutin, rutin]
